# Laboratory results as given in ChEMBL document CHEMBL3784992, “Identification of novel estrogen receptor (ER) agonists that have additional and complementary anti-cancer activities via ER-independent mechanism” (Bioorg Med Chem Lett, 2016).
# Activity calls are given as the source filed them. The calls are words filed in the database; no cut-off is given here.
# Legend:
# Estrogen receptor = target: T1, Estrogen receptor (Homo sapiens, UniProt P03372); test: Agonist activity at estrogen receptor in human MCF7 cells assessed as ERE-mediated transcriptional activity after 24 hrs by luciferase assay; assay type: cell-based
# T1 sequence (P03372 whole entry): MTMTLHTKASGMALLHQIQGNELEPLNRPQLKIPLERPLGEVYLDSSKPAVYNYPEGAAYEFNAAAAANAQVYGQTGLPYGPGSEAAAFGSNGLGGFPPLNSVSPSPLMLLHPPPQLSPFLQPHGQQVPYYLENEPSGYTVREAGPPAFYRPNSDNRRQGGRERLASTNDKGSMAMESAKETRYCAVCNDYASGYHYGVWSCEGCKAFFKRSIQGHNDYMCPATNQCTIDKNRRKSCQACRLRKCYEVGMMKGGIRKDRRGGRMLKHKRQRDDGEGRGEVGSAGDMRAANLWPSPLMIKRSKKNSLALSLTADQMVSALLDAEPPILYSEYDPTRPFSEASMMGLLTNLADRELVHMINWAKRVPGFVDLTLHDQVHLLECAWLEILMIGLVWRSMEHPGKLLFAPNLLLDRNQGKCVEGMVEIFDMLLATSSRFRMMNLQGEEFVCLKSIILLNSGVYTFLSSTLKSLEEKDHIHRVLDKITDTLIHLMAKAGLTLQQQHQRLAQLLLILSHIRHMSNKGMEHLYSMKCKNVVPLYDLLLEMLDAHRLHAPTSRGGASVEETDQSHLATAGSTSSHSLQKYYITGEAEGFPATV
# MCF7 [1] = test: Antiproliferative activity against ER-positive human MCF7 cells assessed as cell viability at 10 uM after 48 hrs by MTT assay; assay type: functional, cell-based
# [2] = target: T2, Estrogen receptor (Homo sapiens) (UniProt P03372); test: Agonist activity at estrogen receptor in human MCF7 cells assessed as GREB1 mRNA level at 10 uM after 24 hrs by RT-qPCR method; assay type: cell-based
# T2 sequence (whole entry): T1 sequence (P03372 whole entry)
# [3] = target: T2, Estrogen receptor (Homo sapiens); test: Agonist activity at estrogen receptor alpha in human MCF7 cells assessed as ER alpha phosphorylation at 10 uM after 24 hrs by immunoblotting analysis; assay type: cell-based
# MCF7 [4] = test: Antiproliferative activity against ER-positive human MCF7 cells assessed as cell viability after 48 hrs by MTT assay; assay type: functional, cell-based
# MDA-MB-231 = test: Antiproliferative activity against ER-negative human MDA-MB-231 cells assessed as cell viability after 48 hrs by MTT assay; assay type: functional, cell-based
# MCF7 [5] = test: Induction of apoptosis in ER-positive human MCF7 cells assessed as membrane blebbing at 10 uM after 24 hrs by DAPI staining based fluorescence microscopy; assay type: functional, cell-based
# MCF7 [6] = test: Induction of apoptosis in ER-positive human MCF7 cells assessed as condensed nuclei at 10 uM after 24 hrs by DAPI staining based fluorescence microscopy; assay type: functional, cell-based
# MCF7 [7] = test: Induction of apoptosis in ER-positive human MCF7 cells assessed as cell death at 10 uM after 48 hrs by annexin-V staining based flow cytometry; assay type: functional
# MCF7 [8] = test: Effect on cell cycle in ER-positive human MCF7 cells assessed as accumulation at subG1 phase at 10 uM after 48 hrs by propidium iodide staining based flow cytometry; assay type: functional
SMILES,EC50 (Estrogen receptor) [nM],Activity (MCF7 [1]),Activity [2],Activity [3],Activity (MCF7 [4]),Activity (MDA-MB-231),Activity (MCF7 [5]),Activity (MCF7 [6]),Activity (MCF7 [7]),Activity (MCF7 [8])
CC(C)CCON=C(c1ccc(O)cc1)c1ccc(O)cc1,77,Active,Active,Active,Dose-dependent effect,Dose-dependent effect,Active,Active,Active,Active
CCCCON=C(c1ccc(O)cc1)c1ccc(O)cc1,75,Active,Active,Active,Dose-dependent effect,Dose-dependent effect,Active,Active,Active,Active
C=CCCCON=C(c1ccc(O)cc1)c1ccc(O)cc1,46,Active,Active,Active,Dose-dependent effect,Dose-dependent effect,Active,Active,Active,Active
